{
  "source": "patent US11053454B2",
  "about": "“Fragrance compositions comprising essential oils and products comprising same for promoting wellness” (THIS WORKS PRODUCTS LIMITED, priority 2018, dated 2021)",
  "test_system": "primary olfactory cortex (piriform cortex)",
  "assay": "fMRI connectivity analysis with piriform cortex as seed",
  "type": "in vivo, human",
  "procedure": "The pre-processed data were analyzed with the connectivity toolbox in SPM. The primary olfactory cortex (piriform cortex) was used as a seed and the connectivity from this very first olfactory target area to other areas in the brain was modeled. A statistical threshold of 0.05, FDR corrected, was used.",
  "note": "Like-named read-outs stand apart in the source and are kept apart here.",
  "data": [
    {"compound": "OCCc1ccccc1", "note": "[PEA, Phenylethylalcohol]", "values": [
      {"measurement": "negative connectivity from the piriform cortex", "value": "negative connectivity to the posterior cingulate cortex"},
      {"measurement": "negative connectivity from the piriform cortex", "setting": "listed as control odor", "value": "negative connectivity was detected to the left parietal frontal gyrus"},
      {"measurement": "overall connectivity: intensity", "setting": "threshold 0.05 FDR corrected", "value": 170},
      {"measurement": "overall connectivity: nodes", "setting": "threshold 0.05 FDR corrected", "value": 41, "unit": "nodes"}
    ]}
  ]
}
